Experimental findings from patent US9499517B2, “Substituted prolines / piperidines as orexin receptor antagonists” (Eolas Therapeutics, Inc., priority 2012, dated 2016) are described below.

SMILES strings stand for the structures. Like-named read-outs stand apart in the source and are kept apart here.

For data set [1], the system named is mice. Briefly: Food self-administration (lever press for food pellets) in WT and Hcrt-R1 KO mice. The conditions noted are these: systemic administration 30 min prior to the session. The data set is classed as in vivo.
Data set [2] addresses T1, OX1 (Homo sapiens, UniProt O43613).
T1 construct: expressed in transfected cells; host or cells: CHO (CHO-OX1, kept under G418 or Blasticidin selection)
T1 sequence (O43613 1-425): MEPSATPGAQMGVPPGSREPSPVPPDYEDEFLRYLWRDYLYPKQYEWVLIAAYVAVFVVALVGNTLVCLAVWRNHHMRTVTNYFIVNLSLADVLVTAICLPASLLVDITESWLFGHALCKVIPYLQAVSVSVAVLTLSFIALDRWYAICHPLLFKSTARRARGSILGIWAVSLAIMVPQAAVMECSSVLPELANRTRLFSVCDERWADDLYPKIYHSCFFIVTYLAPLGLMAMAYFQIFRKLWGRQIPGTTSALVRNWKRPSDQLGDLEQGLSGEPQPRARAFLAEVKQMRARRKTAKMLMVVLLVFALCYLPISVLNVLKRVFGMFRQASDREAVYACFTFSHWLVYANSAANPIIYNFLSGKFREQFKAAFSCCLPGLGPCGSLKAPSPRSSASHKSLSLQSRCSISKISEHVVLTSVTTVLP
Description: Orexin receptor cell-based functional assay: [Ca2+]i by FLIPR in CHO-OX1 cells, antagonism of EC90 of OXA. The protocol:
Orexin Receptor Cell-based Functional Assay.
Measurement of [Ca^2+]i using a FLIPR: CHO—OX1 or CHO—OX2 cells are seeded into black-walled clear-base 384-well plates (Costar) at a density of 20,000 cells per well in F12-K medium supplemented with 10% FBS and selection antibiotic (500 ug/ml G418 or 15 ug/ml Blasticidin) and cultured overnight. The cells are incubated with equal volume of calcium 4 loading buffer (Molecular Devices, Inc.) containing 2.5 mM probenecid at 37° C. for 30 min, followed by putative OX1 or OX2 receptor antagonists (dose-range 0.1 nM-10 μM) for another 30 min.

Data set [3] addresses T2, CYP3A4 (Homo sapiens, UniProt P08684).
T2 construct: pre-incubated with human liver microsomes and NADPH for 30 minutes; from tissue; host or cells: human liver microsomes
Description: Cytochrome P450 inhibition assay: midazolam hydroxylation to 1'-hydroxymidazolam in human liver microsomes, with or without 30 min pre-incubation. In kind it is in vitro ADME. Conditions: human, human liver microsomes, probe midazolam, 10 μM test compound; for inhibition at 5 min, 10 µM: read-out: CYP3A4 % inh (10 μM, 5 min); for inhibition at 30 min, 10 µM: 30 min (time-dependent inhibition), read-out: CYP3A4 % inh (10 μM, 30 min). The protocol: (§1) Cytochrome P450 Inhibition Assay.
(§2) Compounds were tested for the potential to induce drug-drug interactions by inhibition of the cytochrome P450 3A4 isoform. The assay evaluated the metabolism of a specific marker substrate (CYP3A4, midazolam hydroxylation to 1′-hydroxymidazolam) in the presence or absence of 10 μM test compound. […] A specific inhibitor for the isoform was included in each run to validate the system. An appropriate positive control inhibitor was used. Mechanism-based inhibition was investigated where warranted using a classical method. […] The percent inhibition of the pre-incubated and non-pre-incubated samples were compared as a preliminary evaluation of time-dependent inhibition.
(In general: Microsomes from liver hold many membrane-bound enzymes, among them those of drug oxidation.)

Data set [4] has as its target T3, cytochrome P450 3A4 isoform (Homo sapiens, UniProt P08684).
T3 construct: pre-incubated with human liver microsomes and NADPH for 30 minutes; from tissue; host or cells: human liver microsomes
Described as above. The data set is classed as in vitro ADME. The conditions noted are these: relative to Examples 112 and 114 (Table 4). The protocol:
as §1, §2

Data set [5] has as its system mice. Description: Nicotine self-administration assay (IV nicotine) in WT, Hcrt-R1 KO and virally-rescued mice. The data set is classed as in vivo. An excerpt:
Nicotine Self-Administration Assay
Development of Animal Subjects.
To generate Hcrt-R1^+/+ and […] mice, breeding pairs of male and female Hcrt-R1^+/− mice that were backcrossed >10 generations on a C57BL/6 background were obtained from Jackson Laboratory (Bar Harbor, Me.). For all experiments, mice weighing 25-35 g were housed in groups of 2-3 per cage, in a temperature-controlled vivarium under a reversed 12-h light/dark cycle (lights off at 8 am). Food and water were provided ad libitum until behavioral training commenced. During training, mice were food-restricted to maintain ˜85-90% of their free-feeding body weight. Behavioral testing occurred during the dark portion of the light/dark cycle between the hours of 9 am-1 pm, during the early portion of the dark phase of the cycle. All procedures were conducted in strict adherence with the National Institutes of Health Guide for the Care and Use of Laboratory Animals and were approved by the Institutional Animal Care and Use Committee of The Scripps Research Institute.
Mice were anesthetized by inhalation of 1-3% isoflurane in oxygen and silastic catheters were inserted into the jugular veins. […] During the TO period, responding on the lever was recorded but without scheduled consequence. […]

Setting [6] is: Table 2A, bioactivity with respect to OX1, CHO-OX1 cells, FLIPR, read-out: OX1.

T2 sequence (P08684 whole entry): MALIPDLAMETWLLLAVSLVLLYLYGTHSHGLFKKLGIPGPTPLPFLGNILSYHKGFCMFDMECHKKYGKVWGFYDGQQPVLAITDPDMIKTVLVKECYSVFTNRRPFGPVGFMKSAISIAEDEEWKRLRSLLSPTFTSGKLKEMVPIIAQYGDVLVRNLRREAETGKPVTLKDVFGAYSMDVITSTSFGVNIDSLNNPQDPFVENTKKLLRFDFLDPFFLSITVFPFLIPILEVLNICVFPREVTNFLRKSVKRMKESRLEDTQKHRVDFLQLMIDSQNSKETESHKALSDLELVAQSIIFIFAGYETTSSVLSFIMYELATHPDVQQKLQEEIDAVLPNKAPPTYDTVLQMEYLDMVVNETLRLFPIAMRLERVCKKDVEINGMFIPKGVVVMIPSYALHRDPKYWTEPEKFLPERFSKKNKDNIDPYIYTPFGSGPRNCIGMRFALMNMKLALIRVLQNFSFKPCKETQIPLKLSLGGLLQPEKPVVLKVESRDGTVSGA
T3 sequence (P08684 whole entry, canonical isoform): as the sequence (P08684 whole entry) above

As to `Cc1nc(C(=O)N2CCC[C@@H](C)[C@H]2CNc2ccc(C(F)(F)F)cn2)c(-c2ccc(F)cc2)s1` (racemic) [Example 11, rac-(5-(4-fluorophenyl)-2-methylthiazol-4-yl)((2S,3R)-3-methyl-2-(((5-(trifluoromethyl)pyridin-2-yl)amino)methyl)piperidin-1-yl)methanone], in data set [1], the “food self-administration (SA)” value was “no effect on food SA”.

On to `CC(=O)NC1CCC(CNC(=O)c2cccc3cccnc23)N(C(=O)c2ccccc2-c2ccccc2)C1` (racemic) [Example 43, rac-N-((5-acetamido-1-(biphenylcarbonyl)piperidin-2-yl)methyl)quinoline-8-carboxamide], for which, in data set [2] (Table 2, IC50 bioactivity, CHO-OX1 cells, FLIPR, read-out: OX1), the IC50 was 2000 nM.

For the compound `Cc1ccc(-c2ncccn2)c(C(=O)N2CCC[C@@H](C)[C@H]2CNc2ccc(C(F)(F)F)cn2)c1` (racemic) [Example 112, rac-((2S,3R)-3-methyl-2-(((5-(trifluoromethyl)pyridin-2-yl)amino)methyl)piperidin-1-yl)(5-methyl-2-(pyrimidin-2-yl)phenyl)methanone], in data set [2] (Table 4, read-out: OX1 IC50), the IC50 is 42 nM. Further, in data set [3], the inhibition at 5 min, 10 µM came to 72% and the inhibition at 30 min, 10 µM was 94%.

As to `Cc1ccc(-n2nccn2)c(C(=O)N2CCC[C@@H](C)[C@H]2CNc2ccc(C(F)(F)F)cn2)c1` (racemic) [Example 114, rac-((2S,3R)-3-methyl-2-(((5-(trifluoromethyl)pyridin-2-yl)amino)methyl)piperidin-1-yl)(5-methyl-2-(2H-1,2,3-triazol-2-yl)phenyl)methanone], in data set [3], the inhibition at 5 min, 10 µM worked out at 78% and the inhibition at 30 min, 10 µM came to 93%.

For `C[C@@H]1CCCN(C(=O)c2cc(F)ccc2-c2ncccn2)[C@@H]1CNc1ncc(C(F)(F)F)cn1` [Compound A227, (5-Fluoro-2-(pyrimidin-2-yl)phenyl)((2S,3R)-3-methyl-2-(((5-(trifluoromethyl)pyrimidin-2-yl)amino)methyl)piperidin-1-yl)methanone], the inhibition at 30 min, 10 µM in data set [3] was 58%.

Turning to `C[C@@H]1CCCN(C(=O)c2c(F)cccc2-n2nccn2)[C@@H]1CNc1ncc(C(F)(F)F)cn1` [Compound A259, (2-fluoro-6-(2H-1,2,3-triazol-2-yl)phenyl)((2S,3R)-3-methyl-2-(((5-(trifluoromethyl)pyrimidin-2-yl)amino)methyl)piperidin-1-yl)methanone], the inhibition at 30 min, 10 µM in data set [3] stood at 41%.

As for `Cc1ccc(-n2nccn2)c(C(=O)N2CCC[C@@H](C)[C@H]2CNc2nnc(C(F)(F)F)s2)c1` [Example A102, ((2S,3R)-3-Methyl-2-(((5-(trifluoromethyl)-1,3,4-thiadiazol-2-yl)amino)methyl)piperidin-1-yl)(5-methyl-2-(2H-1,2,3-triazol-2-yl)phenyl)methanone], in data set [2] (setting [6]), the IC50 is 61 nM.

In the case of `Cc1ccc(-n2nccn2)c(C(=O)N2CCC[C@@H](C)[C@H]2CNc2ncc(C#N)cc2F)n1` [Example A193, 5-Fluoro-6-((((2S,3R)-3-methyl-1-(6-methyl-3-(2H-1,2,3-triazol-2-yl)picolinoyl)piperidin-2-yl)methyl)amino)nicotinonitrile], the IC50 in data set [2] (setting [6]) was found to be 100 nM.

As for `C[C@@H]1CCCN(C(=O)c2cc(Cl)ccc2-c2ncccn2)[C@@H]1CNc1ncc(C(F)(F)F)cn1` [Example A201, (5-Chloro-2-(pyrimidin-2-yl)phenyl)((2S,3R)-3-methyl-2-(((5-(trifluoromethyl)pyrimidin-2-yl)amino)methyl)piperidin-1-yl)methanone], the “inhibition of CYP3A4” value in data set [4] is reported as “reduced inhibition of CYP3A4”. Besides, in data set [3], the inhibition at 30 min, 10 µM worked out at 59%.

For the compound `C[C@@H]1CCCN(C(=O)c2cc(F)ccc2-n2nccn2)[C@@H]1CNc1ncc(C(F)(F)F)cn1` [Example A207, (5-Fluoro-2-(2H-1,2,3-triazol-2-yl)phenyl)((2S,3R)-3-methyl-2-(((5-(trifluoromethyl)pyrimidin-2-yl)amino)methyl)piperidin-1-yl)methanone], in data set [4], the “inhibition of CYP3A4” value was “reduced inhibition of CYP3A4”. Further, in data set [3], the inhibition at 30 min, 10 µM was 52%.

As for `CC1(C)OC[C@H](NC(=O)Nc2ccc(Br)cc2Br)[C@H](c2ccccc2)O1` [JNJ 10397049], the “nicotine self-administration (SA)” value in data set [5] (KO mice) was “marginal decrease in nicotine SA”; in data set [5] (doses 0, 5 and 10 mg/kg, WT mice), “no effect on nicotine SA”. The “food self-administration (SA)” value in data set [1] is reported as “no effect on SA of food pellets”.

For the compound `Cc1nc(C(=O)N2CCCC(C)(C)C2CNc2ncc(C(F)(F)F)cn2)c(-c2ccc(F)cc2)s1` (centres unmarked) [SR-12364, reference compound], the IC50 in data set [2] (Table 5, read-out: OX1 IC50) is 137 nM.

Regarding `Cc1nc(C(=O)N2CCCCC2CNc2ncc(C(F)(F)F)cn2)c(-c2ccc(F)cc2)s1` (centres unmarked) [SR-12376, reference compound], the IC50 in data set [2] (Table 5, read-out: OX1 IC50) was determined as 13 nM.
